US20210045385A1, “PYRIDAZINONE-SUBSTITUTED KETOXIMES AS HERBICIDES” (FMC Corporation, priority 2018, published 2021)

Key:
Assay type in all cases: in vivo
[1] = system: Italian ryegrass (Lolium mutiflorum); assay: Test C preemergence, visual plant response rating
Method in brief: (§1)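 Compounds in a non-phytotoxic solvent with surfactant were applied as a directed soil spray preemergence or to 2–10 cm, one- to two-leaf plants postemergence, in loam–sand soil. After about 10 d in a greenhouse, injury was visually rated against untreated controls on a 0–100 scale (100 = complete control).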

[2] = system: barnyardgrass (Echinochloa crus-galli); assay: Test C preemergence, visual plant response rating
Method in brief: as §1

[3] = system: foxtail, giant (giant foxtail, Setaria faberi); assay: Test C preemergence, visual plant response rating
Method in brief: as §1

[4] = system: kochia (Bassia scoparia); assay: Test C preemergence, visual plant response rating
Method in brief: as §1

[5] = system: pigweed (Amaranthus retroflexus); assay: Test C preemergence, visual plant response rating
Method in brief: as §1

[6] = system: ragweed (common ragweed, Ambrosia artemisiifolia); assay: Test C preemergence, visual plant response rating
Method in brief: as §1

[7] = system: Italian ryegrass (Lolium mutiflorum); assay: Test C postemergence, visual plant response rating
Method in brief: as §1

[8] = system: barnyardgrass (Echinochloa crus-galli); assay: Test C postemergence, visual plant response rating; conditions: Test C, postemergence
Method in brief: as §1

[9] = system: blackgrass (Alopecurus myosuroides); assay: Test C postemergence, visual plant response rating; conditions: Test C, postemergence
Method in brief: as §1

[10] = system: corn (Zea mays); assay: Test C postemergence, visual plant response rating; conditions: Test C, postemergence
Method in brief: as §1

[11] = system: foxtail, giant (giant foxtail, Setaria faberi); assay: Test C postemergence, visual plant response rating; conditions: Test C, postemergence
Method in brief: as §1

[12] = system: galium (catchweed bedstraw, Galium aparine); assay: Test C postemergence, visual plant response rating; conditions: Test C, postemergence
Method in brief: as §1

[13] = system: kochia (Bassia scoparia); assay: Test C postemergence, visual plant response rating; conditions: Test C, postemergence
Method in brief: as §1

[14] = system: pigweed (Amaranthus retroflexus); assay: Test C postemergence, visual plant response rating
Method in brief: as §1

[15] = system: ragweed (common ragweed, Ambrosia artemisiifolia); assay: Test C postemergence, visual plant response rating
Method in brief: as §1

[16] = system: wheat (Triticum aestivum); assay: Test C postemergence, visual plant response rating
Method in brief: as §1

[17] = system: barnyardgrass (Echinochloa crus-galli); assay: Test D flooded paddy test, visual plant response rating; conditions: 250 g ai/ha, scale 0 to 100 (0 no effect, 100 complete control), 13 to 15 d
Method in brief: (§2)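 2-leaf plants, flooded 3 cm, cpd into paddy water; greenhouse 13–15 d; visual rating vs controls, 0 = no effect, 100 = complete control; dash = no result.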

[18] = system: duck salad (Heteranthera limosa); assay: as above; conditions: 250 g ai/ha, scale 0 to 100 (0 no effect, 100 complete control), 13 to 15 d
Method in brief: as §2

[19] = system: rice (Oryza sativa); assay: as above; conditions: 250 g ai/ha, scale 0 to 100 (0 no effect, 100 complete control), 13 to 15 d
Method in brief: as §2

[20] = system: sedge umbrella (small-flower umbrella sedge, Cyperus difformis); assay: as above; conditions: 250 g ai/ha, scale 0 to 100 (0 no effect, 100 complete control), 13 to 15 d
Method in brief: as §2

[21] = Test C, 31 g ai/ha, 0 is no effect, 100 is complete control
[22] = Test C, postemergence, 125 g ai/ha

CO/N=C(\c1cc(F)cc(F)c1C)c1c(O)c(C)nn(C)c1=O [Compound 152]
10: Barnyardgrass plant response rating (0 to 100 scale) ([2]; 125 g ai/ha) | Kochia plant response rating (0 to 100 scale) ([4]; 125 g ai/ha) | Blackgrass plant response rating (0 to 100 scale) ([9]; 125 g ai/ha) | Foxtail, Giant plant response rating (0 to 100 scale) ([11]; 31 g ai/ha)
30: Pigweed plant response rating (0 to 100 scale) ([5]; 125 g ai/ha)
50: Foxtail, Giant plant response rating (0 to 100 scale) ([11]; 125 g ai/ha) | Kochia plant response rating (0 to 100 scale) ([13]; 31 g ai/ha)
90: Ragweed plant response rating (0 to 100 scale) [15, 22]
40: Ragweed plant response rating (0 to 100 scale) ([6]; 125 g ai/ha) | Ragweed plant response rating (0 to 100 scale) ([15]; Postemergence, 31 g ai/ha)
70: Pigweed plant response rating (0 to 100 scale) [14, 22]
60: Pigweed plant response rating (0 to 100 scale) ([14]; Postemergence, 31 g ai/ha)
20: Ryegrass, Italian plant response rating (0 to 100 scale) [1, 21] | Foxtail, Giant plant response rating (0 to 100 scale) ([3]; 125 g ai/ha) | Ragweed plant response rating (0 to 100 scale) [6, 21] | Ryegrass, Italian plant response rating (0 to 100 scale) ([7]; Postemergence, 31 g ai/ha) | Barnyardgrass plant response rating (0 to 100 scale) ([8]; 125 g ai/ha)
80: Ryegrass, Italian plant response rating (0 to 100 scale) ([1]; 125 g ai/ha) | Ryegrass, Italian plant response rating (0 to 100 scale) [7, 22] | Galium plant response rating (0 to 100 scale) ([12]; 31 g ai/ha) | Galium plant response rating (0 to 100 scale) ([12]; 125 g ai/ha) | Kochia plant response rating (0 to 100 scale) ([13]; 125 g ai/ha)
0: Barnyardgrass plant response rating (0 to 100 scale) [2, 21] | Foxtail, Giant plant response rating (0 to 100 scale) [3, 21] | Kochia plant response rating (0 to 100 scale) [4, 21] | Pigweed plant response rating (0 to 100 scale) [5, 21] | Barnyardgrass plant response rating (0 to 100 scale) ([8]; 31 g ai/ha) | Blackgrass plant response rating (0 to 100 scale) ([9]; 31 g ai/ha) | Corn plant response rating (0 to 100 scale) ([10]; 31 g ai/ha) | Corn plant response rating (0 to 100 scale) ([10]; 125 g ai/ha) | Wheat plant response rating (0 to 100 scale) ([16]; Postemergence, 31 g ai/ha) | Wheat plant response rating (0 to 100 scale) [16, 22] | Plant response rating, Barnyardgrass (Flood) [17] | Plant response rating, Ducksalad (Flood) [18] | Plant response rating, Rice (Flood) [19] | Plant response rating, Sedge, Umbrella (Flood) [20]
